Where two headings read alike, the source gives them in different places.
What was measured:
Type in all cases: biochemical
Details in all cases: for EC50: Buffer A
human PPARα-LBD = molecular target: T1, human PPARα-LBD (Homo sapiens, UniProt Q07869); assay: TR-FRET coactivator recruitment assay, PPARα-LBD
T1 construct: Human PPARα-LBD [amino acids (AAs) 200–468]; made in house
T1 sequence (Q07869 200-468): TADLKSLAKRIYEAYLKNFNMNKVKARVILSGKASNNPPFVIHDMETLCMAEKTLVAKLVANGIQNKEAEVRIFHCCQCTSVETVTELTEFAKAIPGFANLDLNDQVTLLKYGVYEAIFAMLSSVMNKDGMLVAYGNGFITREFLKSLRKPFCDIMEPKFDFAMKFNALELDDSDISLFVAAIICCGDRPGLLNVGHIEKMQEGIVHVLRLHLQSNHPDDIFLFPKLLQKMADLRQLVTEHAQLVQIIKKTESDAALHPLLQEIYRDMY

human PPARγ-LBD = molecular target: T2, human PPARγ-LBD (Homo sapiens, UniProt P37231); assay: TR-FRET coactivator recruitment assay, PPARγ-LBD
T2 construct: PPARγ-LBD (AAs 203–477 in isoform 1); made in house
T2 sequence (P37231 203-477 isoform P37231-2): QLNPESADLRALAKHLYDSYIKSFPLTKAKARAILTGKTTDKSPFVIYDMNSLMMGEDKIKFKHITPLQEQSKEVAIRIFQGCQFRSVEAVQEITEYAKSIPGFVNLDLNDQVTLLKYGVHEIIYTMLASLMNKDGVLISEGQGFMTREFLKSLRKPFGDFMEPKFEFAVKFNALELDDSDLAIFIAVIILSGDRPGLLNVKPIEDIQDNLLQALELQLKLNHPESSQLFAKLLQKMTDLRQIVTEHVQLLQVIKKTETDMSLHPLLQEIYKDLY

human PPARδ-LBD = molecular target: T3, human PPARδ-LBD (Homo sapiens, UniProt Q03181); assay: TR-FRET coactivator recruitment assay, PPARδ-LBD
T3 construct: PPARδ-LBD (AAs 170–441); made in house
T3 sequence (Q03181 170-441): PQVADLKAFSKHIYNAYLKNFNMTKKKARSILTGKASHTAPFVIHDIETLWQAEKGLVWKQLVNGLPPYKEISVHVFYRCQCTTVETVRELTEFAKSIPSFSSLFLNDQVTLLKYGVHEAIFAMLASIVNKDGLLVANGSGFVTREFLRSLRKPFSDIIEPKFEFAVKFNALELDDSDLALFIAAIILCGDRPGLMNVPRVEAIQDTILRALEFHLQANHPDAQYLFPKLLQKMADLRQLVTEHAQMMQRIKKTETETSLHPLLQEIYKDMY

[1] = evaluated based on EC50 values, PGC, PGC1α, SRC, SRC1, TRAP, TRAP220

O=C(O)CCCc1cc2cc(Cl)ccc2n1S(=O)(=O)c1ccc2ncsc2c1 [Lanifibranor, lanifibranor]
EC50 (human PPARα-LBD; CBP peptide recruitment, read-out: PPARα CBP EC50): 4.02 µM | EC50 (human PPARα-LBD; PGC1α peptide recruitment, read-out: PPARα PGC1α EC50): 9.95 µM | EC50 (human PPARα-LBD; SRC1 peptide recruitment, read-out: PPARα SRC1 EC50): 10.4 µM | EC50 (human PPARα-LBD; TRAP220 peptide recruitment, read-out: PPARα TRAP220 EC50): 7.31 µM | Approximate potency order in the recruitment of four coactivators, PPARα (human PPARα-LBD; [1]): CBP>TRAP>PGC=SRC | Emax (human PPARα-LBD; read-out: PPARα CBP % of GW7647 max response): 71.7% | Emax (human PPARα-LBD; read-out: PPARα PGC1α % of GW7647 max response): 41.8% | Emax (human PPARα-LBD; read-out: PPARα SRC1 % of GW7647 max response): 49.3% | Emax (human PPARα-LBD; read-out: PPARα TRAP220 % of GW7647 max response): 64.7% | EC50 (human PPARγ-LBD; CBP peptide recruitment, read-out: PPARγ CBP EC50): 2.64 µM | EC50 (human PPARγ-LBD; PGC1α peptide recruitment, read-out: PPARγ PGC1α EC50): 4.31 µM | EC50 (human PPARγ-LBD; SRC1 peptide recruitment, read-out: PPARγ SRC1 EC50): 7.69 µM | EC50 (human PPARγ-LBD; TRAP220 peptide recruitment, read-out: PPARγ TRAP220 EC50): 5.07 µM | Approximate potency order in the recruitment of four coactivators, PPARγ (human PPARγ-LBD; [1]): CBP>PGC>TRAP>SRC | Emax (human PPARγ-LBD; read-out: PPARγ CBP % of GW1929 max response): 83.3% | Emax (human PPARγ-LBD; read-out: PPARγ PGC1α % of GW1929 max response): 70.5% | Emax (human PPARγ-LBD; read-out: PPARγ SRC1 % of GW1929 max response): 46.1% | Emax (human PPARγ-LBD; read-out: PPARγ TRAP220 % of GW1929 max response): 60.4% | EC50 (human PPARδ-LBD; CBP peptide recruitment, read-out: PPARδ CBP EC50): 3.72 µM | EC50 (human PPARδ-LBD; PGC1α peptide recruitment, read-out: PPARδ PGC1α EC50): 2.46 µM | EC50 (human PPARδ-LBD; SRC1 peptide recruitment, read-out: PPARδ SRC1 EC50): 6.97 µM | EC50 (human PPARδ-LBD; TRAP220 peptide recruitment, read-out: PPARδ TRAP220 EC50): 4.41 µM | Approximate potency order in the recruitment of four coactivators, PPARδ (human PPARδ-LBD; [1]): PGC>CBP>TRAP>SRC | recruitment of coactivators to PPARδ-LBD (in words) (human PPARδ-LBD; four coactivator peptides): effective | Emax (human PPARδ-LBD; read-out: PPARδ CBP % of GW501516 max response): 101% | Emax (human PPARδ-LBD; read-out: PPARδ PGC1α % of GW501516 max response): 103% | Emax (human PPARδ-LBD; read-out: PPARδ SRC1 % of GW501516 max response): 57.5% | Emax (human PPARδ-LBD; read-out: PPARδ TRAP220 % of GW501516 max response): 86.5%
